From patent US20180263996A1, “ARYL SULTAM DERIVATIVES AS RORc MODULATORS” (Genentech, Inc., priority 2015, published 2018)

Target: T1, RORc (Homo sapiens, UniProt P51449)
T1 construct: host or cells: E. coli
T1 sequence (P51449 269-508 limits assumed): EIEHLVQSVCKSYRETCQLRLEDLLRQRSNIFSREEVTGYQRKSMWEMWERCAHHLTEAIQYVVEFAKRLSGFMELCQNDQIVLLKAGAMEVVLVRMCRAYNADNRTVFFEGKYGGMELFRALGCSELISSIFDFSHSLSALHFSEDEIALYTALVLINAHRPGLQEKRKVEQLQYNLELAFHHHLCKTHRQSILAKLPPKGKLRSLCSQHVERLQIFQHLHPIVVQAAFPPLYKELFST
Test: In Vitro RORc Ligand Binding Assay
Details: IC50 values for RORc

IC50: 32.6 nM
Structure (SMILES): C[C@H]1CC[C@H](c2ccccc2)S(=O)(=O)N1Cc1cc(F)c(C2(C(=O)N[C@H]3C[C@@H](O)C3)CCOCC2)cc1F [Compound 38, 4-[2,5-difluoro-4-[[(3S,6R)-3-methyl-1,1-dioxo-6-phenyl-thiazinan-2-yl]methyl]phenyl]-N-(3-hydroxycyclobutyl) tetrahydropyran-4-carboxamide]
